Common to all, as to assay: inhibition of tumour cell growth, NCI panel, 48 h
Assay [1] has as its system CCRF-CEM leukemia.
Assay [2] relates to M14 melanoma.
The subject of assay [3] is MALME-3M melanoma.
In assay [4] the test system is NCI-H522 lung.
In assay [5] the test system is TK-10 renal.
Assay [6] concerns U251 CNS.
Assay [7] relates to UACC-257 melanoma.
The test system of assay [8] is UO-31 renal.

Structures are written as SMILES. Where “and” joins values, the source holds several entries; their conditions need not be identical. Equal values may be shown once.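 Dose response: 5 concentrations. Exposure: 48 h. Format: 96-well plates. Endpoint: linear interpolation; highest concentration if not reached. GI50 is the concentration that inhibits growth by half. The concentration for full growth arrest is given as TGI.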

As to `CCOC(=O)[C@H]1CSC[C@@H](C(=O)OC)N1`, the TGI in assay [1], in assay [2], in assay [3], in assay [4], in assay [5] and in assay [6] was more than 100 µM in each case. Besides, the TGI in assay [7] and in assay [8] was more than 100 µM each time.
As for `COC(=O)[C@@]1(O)CC(C)C=C1C=O` (stereo partly drawn), the TGI was more than 100 µM in assay [1]; more than 100 µM in assay [2]; more than 100 µM in assay [3]; 94.9 µM in assay [4]; more than 100 µM in assay [5]; 38.4 µM in assay [6]. In addition, the TGI in assay [7] and in assay [8] was more than 100 µM each time.
Consider `COc1ccc(-c2nnc(-c3c(C)n(C)n(-c4ccccc4)c3=O)o2)cc1`, for which the TGI in assay [1], in assay [2], in assay [3], in assay [4], in assay [5] and in assay [6] was more than 100 µM in each case. Besides, the TGI in assay [7] and in assay [8] was more than 100 µM throughout.
In the case of `O=[P+](O)c1cc2ccccc2c2ccccc12`, the TGI in assay [1], in assay [2], in assay [4], in assay [5] and in assay [6] was more than 100 µM each time.
Consider `O=C(O)C(C(=O)C(=O)C(C(=O)O)c1ccc(Cl)cc1)c1ccc(Cl)cc1` (stereo not drawn), for which the TGI in assay [1] was found to be 10 µM; in assay [2] it was 16.4 µM; in assay [3], 10.4 µM; in assay [4], 4.45 µM; in assay [5], 12.3 µM; in assay [6], 12 µM. For the same compound, the TGI in assay [7] was found to be 11.4 µM; in assay [8], 15.4 µM.
In the case of `CC(C)N1CCC2(CC1)NNc1ncccc1-n1cccc12`, the TGI in assay [1], in assay [2], in assay [3], in assay [4], in assay [5] and in assay [6] was more than 100 µM throughout. Moreover, the TGI in assay [7] and in assay [8] was more than 100 µM throughout.
Regarding `CCC(=O)C(C)C(=O)C(=O)C(=O)OC` (stereo not drawn), the TGI was more than 69.1 µM in assay [1]; more than 100 µM in assay [2]; more than 100 µM in assay [3]; more than 100 µM in assay [4]; more than 100 µM in assay [5]; more than 68.2 µM in assay [6]. For the same compound, the TGI in assay [7] and in assay [8] was more than 100 µM in each case.
For `Cc1ccc(-c2cc(=O)c3cc(C)c(C)c(C(=O)O)c3o2)cc1`, the TGI in assay [1] is more than 100 µM; in assay [2] it was more than 100 µM; in assay [3] it was more than 100 µM; in assay [4] it was 54.5 µM; in assay [5], more than 100 µM; in assay [6], more than 100 µM. For the same compound, the TGI in assay [7] and in assay [8] was more than 100 µM throughout.
Regarding `CC(C)(c1ccc(Oc2ccc(C#N)c(C#N)c2)cc1)c1ccc(Oc2ccc(C#N)c(C#N)c2)cc1`, the GI50 in assay [1], in assay [2], in assay [3], in assay [4], in assay [5] and in assay [6] was more than 100000 nM in each case. For the same compound, the TGI in assay [1], in assay [2], in assay [3], in assay [4], in assay [5] and in assay [6] was more than 100 µM in each case. Further, the TGI in assay [8] is more than 100 µM.
For the compound `CN(C(=O)C12C3(C(=O)C(C)(C)C)C4C5(C#N)C3C1(C(=O)C(C)(C)C)C5C42C(=O)C(C)(C)C)C(C)(C)C` (stereo not drawn), the TGI in assay [1], in assay [2], in assay [3], in assay [4], in assay [5] and in assay [6] was more than 50 µM in each case. Moreover, the TGI in assay [7] and in assay [8] was more than 50 µM throughout.
Regarding `CC(=O)OC(C)(C)/C=C/C(=O)[C@](C)(O)[C@H]1[C@H](O)C[C@@]2(C)[C@@H]3CC=C4[C@@H](C[C@H](O)C(=O)C4(C)C)[C@]3(CO)C(=O)C[C@]12C`, the GI50 in assay [1] is 95.9 nM; in assay [2], 85.7 nM; in assay [3], 83.8 nM; in assay [4], 112 nM; in assay [5], 251 nM; in assay [6], 267 nM. The GI50 was 284 nM in assay [7] and 251 nM in assay [8]. Moreover, the TGI in assay [1] was 0.96 µM and 2.62 µM; in assay [2], 4.12 µM; in assay [3] it was 0.936 µM and 4.69 µM; in assay [4], 0.855 µM and 0.675 µM; in assay [5], 0.318 µM and 0.512 µM; in assay [6], 0.592 µM and 1.52 µM. For the same compound, the TGI in assay [7] is 0.943 µM and 6.36 µM; in assay [8], 0.883 µM and 0.565 µM.
For `O=c1nc(NC(c2ccccc2)(c2ccccc2)c2ccccc2)ccn1CCO`, the TGI in assay [3], in assay [4], in assay [5], in assay [6], in assay [7] and in assay [8] was more than 100 µM each time.
In the case of `CCO/C=C1\N=C(C(Cl)c2ccccc2)OC1=O` (stereo not drawn), the TGI in assay [1], in assay [2], in assay [3], in assay [4], in assay [5] and in assay [7] was more than 100 µM each time. Besides, the TGI in assay [8] was more than 100 µM.
On to `CC(C)(O)[C@@H]1CC[C@@]2(C)CCC[C@H](O)[C@H]2C1`, for which the TGI in assay [1], in assay [2], in assay [3], in assay [4], in assay [5] and in assay [6] was more than 100 µM throughout. Moreover, the TGI in assay [7] and in assay [8] was more than 100 µM in each case.
Regarding `COc1ccc(OC)c(NCC#N)c1`, the TGI in assay [1], in assay [2], in assay [3], in assay [4], in assay [5] and in assay [6] was more than 100 µM throughout. In addition, the TGI in assay [7] and in assay [8] was more than 100 µM throughout.
As to `COC1=C2C[C@H](O)C(C)C[C@@]2(OC)OC1=O` (stereo partly drawn), the TGI in assay [1], in assay [2], in assay [3], in assay [4], in assay [6] and in assay [7] was more than 100 µM each time. Also, in assay [8], the TGI is more than 100 µM.
For the compound `O=C1C2CC=CCC2C(=O)C12CCc1ccccc12` (stereo not drawn), the TGI in assay [1], in assay [2], in assay [3], in assay [5], in assay [6] and in assay [8] was more than 100 µM throughout.
`COc1cc([C@H]2c3cc4c(cc3[C@H](NCc3ccc([N+](=O)[O-])cc3)C3COC(=O)[C@H]32)OCO4)cc(OC)c1O` (stereo partly drawn): the TGI in assay [1] is more than 100 µM; in assay [2], 10.4 µM; in assay [3], 17.3 µM; in assay [5], 7.08 µM; in assay [6] it was 3.26 µM; in assay [7] it was more than 81.8 µM. In assay [8], this compound returned a TGI of 5.75 µM.
For the compound `CCCCCCCCC(O)C#CC(N)=O` (stereo not drawn), the TGI was determined as 72.5 µM in assay [1]; 25.6 µM in assay [2]; 31.8 µM in assay [3]; 30.8 µM in assay [5]; 20.9 µM in assay [6]; 26.9 µM in assay [7]. Besides, the TGI in assay [8] was 21.6 µM.
With `NC(=O)C(=Cc1ccc(CP(=O)(O)O)cc1)C(N)=O`, the TGI in assay [2], in assay [3], in assay [4], in assay [5], in assay [6] and in assay [7] was more than 100 µM throughout. Moreover, the TGI in assay [8] is more than 100 µM.
For the compound `COC(=O)c1ccc(NC(=O)c2cc(OC)c(OC)c(OC)c2)cc1`, the TGI was more than 100 µM in assay [1]; more than 100 µM in assay [2]; more than 100 µM in assay [3]; 3.58 µM in assay [4]; more than 100 µM in assay [5]; 66.9 µM in assay [8].
Consider `NC(CC(=O)Nc1ccc(Cl)cc1)=Nc1ccccc1`, for which the TGI in assay [2], in assay [3], in assay [4], in assay [5], in assay [6] and in assay [7] was more than 100 µM each time. Moreover, the TGI in assay [8] was more than 100 µM.
In the case of `O=c1cc(-c2ccccc2)[nH]c2c(Cl)cccc12`, the TGI in assay [1], in assay [2], in assay [3], in assay [5], in assay [6] and in assay [7] was more than 100 µM each time. This compound showed a TGI in assay [8] of more than 100 µM.
As for `Cc1ccc(C(=O)N2c3ccccc3N(C)n3cccc3C2CC(=O)O)cc1` (stereo not drawn), the TGI in assay [1], in assay [2], in assay [3], in assay [4], in assay [5] and in assay [7] was more than 100 µM in each case. Besides, in assay [8], the TGI is more than 100 µM.

The values above are taken from PubChem BioAssay (NCI).
